According to ChEMBL document CHEMBL1201862, “PubChem BioAssay data set” (2004):
Activity calls are given as the source filed them.

Tests used:
[1] = molecular target: Induced myeloid leukemia cell differentiation protein Mcl-1 (Homo sapiens, UniProt Q07820); format: functional
[2] = molecular target: T1, Hexokinase HKDC1 (Homo sapiens, UniProt Q2TB90); experiment: inhibition of HKDC1 glucose phosphorylation – biochemical, W721R variant, dose response (AID 504729); format: functional
T1 sequence (Q2TB90 whole entry): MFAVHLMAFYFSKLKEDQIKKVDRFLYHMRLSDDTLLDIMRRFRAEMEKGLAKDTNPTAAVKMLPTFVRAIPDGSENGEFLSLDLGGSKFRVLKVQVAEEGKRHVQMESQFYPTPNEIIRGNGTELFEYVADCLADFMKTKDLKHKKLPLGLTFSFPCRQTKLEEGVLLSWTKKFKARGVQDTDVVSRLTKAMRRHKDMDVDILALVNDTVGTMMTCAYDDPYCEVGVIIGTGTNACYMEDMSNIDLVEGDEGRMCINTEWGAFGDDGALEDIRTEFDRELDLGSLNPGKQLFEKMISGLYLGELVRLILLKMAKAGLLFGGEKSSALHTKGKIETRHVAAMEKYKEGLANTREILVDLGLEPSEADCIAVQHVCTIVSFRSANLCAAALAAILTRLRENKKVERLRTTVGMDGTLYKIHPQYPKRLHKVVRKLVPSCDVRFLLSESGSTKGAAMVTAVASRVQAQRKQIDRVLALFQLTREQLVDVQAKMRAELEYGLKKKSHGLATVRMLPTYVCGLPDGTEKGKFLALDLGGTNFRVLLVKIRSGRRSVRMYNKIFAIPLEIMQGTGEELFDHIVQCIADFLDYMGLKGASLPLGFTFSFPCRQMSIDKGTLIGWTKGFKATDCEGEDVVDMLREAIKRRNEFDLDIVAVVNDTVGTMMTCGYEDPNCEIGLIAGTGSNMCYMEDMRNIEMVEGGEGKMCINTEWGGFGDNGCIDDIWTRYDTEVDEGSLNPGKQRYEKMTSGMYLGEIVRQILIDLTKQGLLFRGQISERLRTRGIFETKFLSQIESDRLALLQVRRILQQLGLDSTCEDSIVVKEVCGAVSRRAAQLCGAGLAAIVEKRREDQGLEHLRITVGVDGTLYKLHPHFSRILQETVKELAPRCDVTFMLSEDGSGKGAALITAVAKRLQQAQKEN

[3] = molecular target: Cytochrome P450 2C19 (Homo sapiens, UniProt P33261); experiment: Cytochrome panel assay with activity outcomes. Panel member name: p450-cyp2c19 Compounds with AC50 equal or less than 10 uM are considered active; format: functional; settings: read-out: AC50
[4] = molecular target: T2, Cytochrome P450 2C9 (Homo sapiens, UniProt P11712)
[5] = molecular target: T3, Fatty acid synthase (Homo sapiens, UniProt P49327); experiment: inhibition of human FAS-TE enzyme activity – biochemical, kinetic fluorescence intensity, dose response (AID 624326); format: functional;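 note: rate of fluorescence rise from hydrolysis of a fluorogenic O-methyl fluorescein ester substrate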
[6] = molecular target: T3, Fatty acid synthase; experiment: inhibition of human FAS-TE enzyme activity – biochemical, endpoint fluorescence intensity, uHTS hits, dose response (AID 624327); format: functional;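 note: fluorescence from hydrolysis of an O-methyl fluorescein acyl ester substrate by the enzyme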
[7] = molecular target: T4, Cytochrome P450 1A2 (Homo sapiens, UniProt P05177);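 note: PubChem cytochrome P450 panel assay, CYP1A2 panel member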
T4 sequence (P05177 whole entry): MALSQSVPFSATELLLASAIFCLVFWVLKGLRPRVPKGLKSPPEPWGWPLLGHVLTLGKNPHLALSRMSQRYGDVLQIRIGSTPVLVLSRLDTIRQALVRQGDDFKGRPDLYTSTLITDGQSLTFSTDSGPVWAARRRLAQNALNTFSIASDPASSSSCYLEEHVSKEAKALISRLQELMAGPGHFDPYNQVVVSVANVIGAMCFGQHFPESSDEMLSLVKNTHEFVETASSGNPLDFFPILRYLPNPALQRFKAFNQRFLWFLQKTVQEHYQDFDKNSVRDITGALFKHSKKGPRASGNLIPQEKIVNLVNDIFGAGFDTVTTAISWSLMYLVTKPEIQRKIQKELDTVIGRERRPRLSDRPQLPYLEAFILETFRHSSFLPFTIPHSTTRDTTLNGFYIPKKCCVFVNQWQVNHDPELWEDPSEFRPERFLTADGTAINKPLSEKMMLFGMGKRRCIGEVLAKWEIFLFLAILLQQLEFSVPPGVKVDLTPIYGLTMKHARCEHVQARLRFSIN

[8] = molecular target: Mitogen-activated protein kinase 10 (Homo sapiens, UniProt P53779); experiment: Dose response biochemical screening assay for inhibitors of c-Jun N-Terminal Kinase 3 (JNK3). [Related pubchem assays: 746 ]
[9] = molecular target: Heat shock protein HSP 90-alpha (Homo sapiens, UniProt P07900); format: functional, organism-based
[10] = reduction of Shn3 3'UTR-driven luciferase in osteoblasts – cell-based, Clone20 osteoblasts, firefly luciferase, cherry-picked, dose response (AID 624132); format: functional;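 note: firefly luciferase luminescence from reporter carrying the Shn3 3'UTR in osteoblasts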
[11] = non-specific 3'UTR reporter inhibition in Clone20-Shn3RL – cell-based, Renilla luciferase, cherry-picked, counter-screen for Shn3 inhibitor project, dose response (AID 624133); format: functional
[12] = tested on: INS1; experiment: INS-1E survival protection against cytokine death – cell-based, luminescence, retest, dose response (AID 449756); format: functional; settings: Rattus norvegicus;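 note: cell death triggered by IL-1 beta plus TNF-alpha plus IFN-gamma mixture; protective hits raise ATP signal compared with cytokine alone wells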
[13] = loss of viability in HepG2 cells – cell-based, CellTiter-Glo, cherry-picked, cytotoxicity control for Shn3 inhibitor project, dose response (AID 624134); format: functional
[14] = molecular target: Cytochrome P450 3A4 (Homo sapiens, UniProt P08684);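 note: CYP3A4 tested as one member of a cytochrome P450 panel screen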
[15] = molecular target: Large T antigen (Simian virus 40, UniProt P03070); format: functional, Betapolyomavirus macacae;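 note: Confirmatory-stage PubChem screen for compounds that inhibit SV40 T antigen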
[16] = molecular target: FAD-linked sulfhydryl oxidase ALR (Homo sapiens, UniProt P55789); experiment: ALR-catalysed DTT oxidation blockers – biochemical, H2O2 detection, luminescence, cherry-pick, dose response (AID 493248)
[17] = molecular target: Genome polyprotein (dengue virus type 2, UniProt P29990); experiment: flavivirus cap methylation enzyme inhibition – biochemical, confirmation dose response, primary screen (AID 588689); format: functional
[18] = molecular target: Cytochrome P450 2D6 (Homo sapiens, UniProt P10635);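 note: CYP2D6 member of a cytochrome P450 panel assay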
[19] = molecular target: Luciferin 4-monooxygenase (Photinus pyralis, UniProt P08659); experiment: inhibition of purified Photinus pyralis luciferase – biochemical, luminescence, dose response (AID 1891)
[20] = Luminescence Cell-Based Dose Confirmation HTS to Identify Inhibitors of Platelet Dense Granule Release. [Related pubchem assays: 1663 (Primary HTS), 1678 (Summary of Project)]; format: functional
[21] = molecular target: T2, Cytochrome P450 2C9; remark: listed apart in the source
[22] = Trypanosoma cruzi growth suppression in host cells – NIH3T3 host cells, beta-gal luminescence, confirmation (AID 2044); format: functional, cell-based;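 note: intracellular parasites grown in NIH/3T3 mouse fibroblasts as host cells; luminescent beta-galactosidase reporter signal from transgenic T. cruzi replicating inside host cells; inhibitors lower the luminescence signal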
[23] = NIH3T3 cell viability loss – ATP luminescence, mouse fibroblasts, counter-screen, dose response (AID 2010); format: functional, cell-based;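 note: cells exposed to compound for about 90 hours before reading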
[24] = tested on: HEK293; experiment: cells; settings: Homo sapiens
[25] = tested on: HEK293; experiment: cells; settings: Homo sapiens; remark: listed apart in the source
[26] = tested on: HEK293; experiment: EBV LMP1 TES2 canonical NF-kB signalling blockers – cell-based, HEK293, luciferase, cherry-pick, dose response (AID 588343); format: functional; settings: Homo sapiens
[27] = molecular target: Dual specificity tyrosine-phosphorylation-regulated kinase 1A (Rattus norvegicus, UniProt Q63470); format: biochemical, Homo sapiens

T3 sequence (P49327 whole entry): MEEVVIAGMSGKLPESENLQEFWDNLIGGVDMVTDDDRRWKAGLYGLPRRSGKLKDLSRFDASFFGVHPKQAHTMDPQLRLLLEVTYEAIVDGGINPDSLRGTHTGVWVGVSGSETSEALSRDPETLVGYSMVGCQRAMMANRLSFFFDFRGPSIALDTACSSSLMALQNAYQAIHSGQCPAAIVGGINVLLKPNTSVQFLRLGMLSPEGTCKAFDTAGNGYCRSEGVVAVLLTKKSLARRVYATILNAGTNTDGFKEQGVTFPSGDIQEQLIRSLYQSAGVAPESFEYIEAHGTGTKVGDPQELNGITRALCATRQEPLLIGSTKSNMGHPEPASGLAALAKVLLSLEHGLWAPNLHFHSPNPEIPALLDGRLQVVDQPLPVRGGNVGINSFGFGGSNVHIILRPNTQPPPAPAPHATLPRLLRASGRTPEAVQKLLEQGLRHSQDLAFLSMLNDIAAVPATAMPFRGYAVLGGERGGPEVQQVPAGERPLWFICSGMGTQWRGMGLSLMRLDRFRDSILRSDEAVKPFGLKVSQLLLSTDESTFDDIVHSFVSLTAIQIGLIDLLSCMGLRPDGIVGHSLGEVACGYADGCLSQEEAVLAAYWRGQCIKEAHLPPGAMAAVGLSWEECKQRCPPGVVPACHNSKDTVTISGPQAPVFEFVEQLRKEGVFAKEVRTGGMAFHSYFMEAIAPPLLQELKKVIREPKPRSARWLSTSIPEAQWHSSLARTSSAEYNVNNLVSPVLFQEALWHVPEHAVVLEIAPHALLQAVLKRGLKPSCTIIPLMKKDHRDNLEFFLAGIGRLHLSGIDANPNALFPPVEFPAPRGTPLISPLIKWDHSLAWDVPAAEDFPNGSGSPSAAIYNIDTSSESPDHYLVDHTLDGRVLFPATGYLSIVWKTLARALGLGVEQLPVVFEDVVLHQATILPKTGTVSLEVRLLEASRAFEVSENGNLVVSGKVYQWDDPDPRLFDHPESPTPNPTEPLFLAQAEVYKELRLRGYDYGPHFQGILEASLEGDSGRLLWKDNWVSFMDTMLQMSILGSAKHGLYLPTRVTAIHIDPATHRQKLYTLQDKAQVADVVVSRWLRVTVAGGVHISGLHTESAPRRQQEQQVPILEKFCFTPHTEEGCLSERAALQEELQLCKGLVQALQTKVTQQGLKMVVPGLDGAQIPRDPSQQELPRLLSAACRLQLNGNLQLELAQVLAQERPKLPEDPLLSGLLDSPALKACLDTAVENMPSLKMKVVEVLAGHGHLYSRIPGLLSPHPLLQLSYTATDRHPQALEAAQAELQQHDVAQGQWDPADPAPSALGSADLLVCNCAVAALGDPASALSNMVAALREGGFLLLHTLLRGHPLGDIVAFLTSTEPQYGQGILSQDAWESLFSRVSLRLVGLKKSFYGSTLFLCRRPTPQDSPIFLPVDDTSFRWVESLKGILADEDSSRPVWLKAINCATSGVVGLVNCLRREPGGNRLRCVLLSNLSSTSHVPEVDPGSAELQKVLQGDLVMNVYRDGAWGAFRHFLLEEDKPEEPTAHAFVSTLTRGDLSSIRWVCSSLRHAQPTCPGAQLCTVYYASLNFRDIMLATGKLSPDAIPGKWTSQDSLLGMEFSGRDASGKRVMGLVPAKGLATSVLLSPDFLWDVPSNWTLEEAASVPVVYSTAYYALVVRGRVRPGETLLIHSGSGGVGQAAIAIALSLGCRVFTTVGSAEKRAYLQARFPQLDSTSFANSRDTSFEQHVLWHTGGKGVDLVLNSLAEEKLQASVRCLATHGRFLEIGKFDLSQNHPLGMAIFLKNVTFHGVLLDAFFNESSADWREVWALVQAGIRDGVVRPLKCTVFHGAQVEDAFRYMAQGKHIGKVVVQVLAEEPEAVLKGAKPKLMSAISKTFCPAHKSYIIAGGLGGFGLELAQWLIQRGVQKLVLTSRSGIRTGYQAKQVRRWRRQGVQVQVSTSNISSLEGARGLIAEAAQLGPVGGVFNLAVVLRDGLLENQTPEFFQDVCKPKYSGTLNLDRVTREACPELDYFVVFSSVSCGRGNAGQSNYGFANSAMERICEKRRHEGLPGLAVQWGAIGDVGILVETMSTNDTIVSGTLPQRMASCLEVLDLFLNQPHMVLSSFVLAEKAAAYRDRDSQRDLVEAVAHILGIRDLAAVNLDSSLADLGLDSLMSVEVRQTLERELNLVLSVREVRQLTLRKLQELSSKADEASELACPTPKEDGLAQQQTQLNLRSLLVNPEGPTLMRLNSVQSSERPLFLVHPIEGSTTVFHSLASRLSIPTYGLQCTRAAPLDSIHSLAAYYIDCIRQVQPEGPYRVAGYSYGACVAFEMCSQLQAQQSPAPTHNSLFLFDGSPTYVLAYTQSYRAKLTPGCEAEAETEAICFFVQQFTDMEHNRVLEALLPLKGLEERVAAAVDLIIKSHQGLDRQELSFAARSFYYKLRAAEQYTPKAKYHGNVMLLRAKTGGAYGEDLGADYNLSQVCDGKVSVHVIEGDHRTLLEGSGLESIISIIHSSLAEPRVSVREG
Sequence of Mitogen-activated protein kinase 10 (P53779 whole entry): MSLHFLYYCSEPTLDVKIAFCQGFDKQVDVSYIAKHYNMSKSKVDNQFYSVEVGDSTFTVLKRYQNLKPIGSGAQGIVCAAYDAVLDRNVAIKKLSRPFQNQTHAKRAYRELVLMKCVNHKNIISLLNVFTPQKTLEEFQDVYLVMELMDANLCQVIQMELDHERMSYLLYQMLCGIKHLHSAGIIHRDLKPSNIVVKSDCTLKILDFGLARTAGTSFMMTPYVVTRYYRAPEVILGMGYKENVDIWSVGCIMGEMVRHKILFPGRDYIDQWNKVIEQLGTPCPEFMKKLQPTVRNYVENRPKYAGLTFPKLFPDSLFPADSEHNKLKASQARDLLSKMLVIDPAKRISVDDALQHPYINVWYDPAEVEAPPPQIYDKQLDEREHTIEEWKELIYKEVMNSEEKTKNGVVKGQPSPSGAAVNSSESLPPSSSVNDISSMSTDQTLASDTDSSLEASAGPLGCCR
T2 sequence (P11712 whole entry): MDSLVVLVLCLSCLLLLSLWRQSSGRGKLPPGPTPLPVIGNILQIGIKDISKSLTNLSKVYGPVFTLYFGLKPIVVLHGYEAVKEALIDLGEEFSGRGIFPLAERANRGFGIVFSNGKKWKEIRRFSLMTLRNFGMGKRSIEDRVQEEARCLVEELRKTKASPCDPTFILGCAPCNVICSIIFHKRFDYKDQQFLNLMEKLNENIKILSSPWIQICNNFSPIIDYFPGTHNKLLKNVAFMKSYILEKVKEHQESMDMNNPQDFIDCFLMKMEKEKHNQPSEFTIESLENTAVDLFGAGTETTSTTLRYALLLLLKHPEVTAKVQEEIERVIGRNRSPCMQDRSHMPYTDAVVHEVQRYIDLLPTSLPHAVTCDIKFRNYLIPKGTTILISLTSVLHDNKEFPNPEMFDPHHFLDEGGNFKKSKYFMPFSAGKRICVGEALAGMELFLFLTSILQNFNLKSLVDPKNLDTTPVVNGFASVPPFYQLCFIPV
Sequence of Genome polyprotein (P29990 2492-3391 limits assumed): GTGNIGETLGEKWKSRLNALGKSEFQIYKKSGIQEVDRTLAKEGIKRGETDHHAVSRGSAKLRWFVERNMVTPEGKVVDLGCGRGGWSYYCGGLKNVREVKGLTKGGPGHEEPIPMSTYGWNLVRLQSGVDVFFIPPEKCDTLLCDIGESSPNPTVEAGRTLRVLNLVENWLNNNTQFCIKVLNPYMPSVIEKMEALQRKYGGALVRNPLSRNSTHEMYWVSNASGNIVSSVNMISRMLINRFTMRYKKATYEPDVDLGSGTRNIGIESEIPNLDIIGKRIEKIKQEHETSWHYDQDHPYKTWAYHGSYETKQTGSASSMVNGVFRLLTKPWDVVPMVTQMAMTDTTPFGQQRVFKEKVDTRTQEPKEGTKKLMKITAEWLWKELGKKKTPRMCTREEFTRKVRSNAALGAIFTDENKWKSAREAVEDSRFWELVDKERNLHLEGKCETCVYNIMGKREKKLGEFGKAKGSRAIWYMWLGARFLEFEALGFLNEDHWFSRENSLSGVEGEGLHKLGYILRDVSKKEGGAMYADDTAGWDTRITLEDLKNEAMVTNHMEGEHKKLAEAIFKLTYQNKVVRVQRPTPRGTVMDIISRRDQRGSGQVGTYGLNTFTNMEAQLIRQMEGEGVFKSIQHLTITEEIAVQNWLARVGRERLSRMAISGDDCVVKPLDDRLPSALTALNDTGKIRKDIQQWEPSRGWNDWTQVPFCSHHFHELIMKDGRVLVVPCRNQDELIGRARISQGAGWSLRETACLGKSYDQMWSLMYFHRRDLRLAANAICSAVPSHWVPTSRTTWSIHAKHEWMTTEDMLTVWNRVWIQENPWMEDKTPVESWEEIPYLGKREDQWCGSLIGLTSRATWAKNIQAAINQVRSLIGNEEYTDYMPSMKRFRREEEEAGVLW
Sequence of FAD-linked sulfhydryl oxidase ALR (P55789 whole entry): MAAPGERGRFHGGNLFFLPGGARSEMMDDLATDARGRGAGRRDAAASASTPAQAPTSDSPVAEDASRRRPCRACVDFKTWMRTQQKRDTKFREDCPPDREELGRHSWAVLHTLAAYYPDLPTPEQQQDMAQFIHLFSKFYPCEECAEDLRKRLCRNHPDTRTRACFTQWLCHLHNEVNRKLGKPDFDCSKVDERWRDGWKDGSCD
Sequence of Cytochrome P450 2C19 (P33261 whole entry): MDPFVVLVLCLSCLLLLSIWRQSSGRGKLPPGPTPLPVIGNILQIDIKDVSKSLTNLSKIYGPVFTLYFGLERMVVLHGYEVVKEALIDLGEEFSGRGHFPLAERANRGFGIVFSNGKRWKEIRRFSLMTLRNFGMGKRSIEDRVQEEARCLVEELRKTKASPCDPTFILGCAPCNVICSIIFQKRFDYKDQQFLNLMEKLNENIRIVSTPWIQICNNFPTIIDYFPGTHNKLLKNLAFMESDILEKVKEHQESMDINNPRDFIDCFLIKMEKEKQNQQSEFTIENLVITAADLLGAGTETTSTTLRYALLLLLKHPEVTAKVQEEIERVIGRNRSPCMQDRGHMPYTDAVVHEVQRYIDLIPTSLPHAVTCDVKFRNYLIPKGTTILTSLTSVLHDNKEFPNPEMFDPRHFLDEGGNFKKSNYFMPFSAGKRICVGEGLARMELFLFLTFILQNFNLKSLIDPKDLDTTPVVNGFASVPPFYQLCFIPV

## CC(=O)c1cc(C#N)c(SCc2ccccn2)nc1C
[1]
  IC50: 5.73 µM (not active)

## Cc1cc2cc(CCNC(=O)c3ccc(S(=O)(=O)N4CCOCC4)cc3)c(O)nc2cc1C
[2]
  IC50: 11.1 µM (active)

## C[C@@]12CC[C@@H]3c4ccc(O)cc4CC[C@H]3[C@H]1C[C@@H](O)[C@H]2O
[3]
  AC50: 7.94 µM (inconclusive)
[4]
  AC50: inconclusive

## COc1ccc(CNC(=O)/C=C/c2cc([N+](=O)[O-])ccc2OC(F)F)cc1
[5]
  IC50: 1.37 µM (active)
[6]
  IC50: 1.17 µM (active)

## CCn1c(COc2ccccc2)nnc1SCC(=O)Nc1cc(OC)ccc1OC
[7]
  AC50: 25.1 µM (inconclusive)
[4]
  AC50: inconclusive

## COc1ccc(C2=NN(CN3C(=O)C(=O)c4ccccc43)C(c3cccc([N+](=O)[O-])c3)C2)cc1 (configuration not stated)
[5]
  IC50: 13 µM (active)
[6]
  IC50: 12.4 µM (active)

## CCCc1nc2oc3c(OC)ncnc3c2c2c1COC(C)(C)C2
[2]
  IC50: 23 µM (inactive)

## COc1cccc(OCC(=O)Nc2ccccc2C(N)=O)c1
[8]
  IC50: 55.2 µM (not active)

## CN(C)CC1Oc2ccccc2OC1(O)c1ccccc1 (configuration not stated)
[9]
  AC50: 2.52 µM (active)

## COc1ccc(CCNc2cc(N3CCN(C(=O)c4ccccc4OC)CC3)ccc2[N+](=O)[O-])cc1OC
[10]
  AC50: 2.63 µM (active)
[11]
  AC50: 10.5 µM (active)
[12]
  AC50: 4.67 µM (active)
[13]
  AC50: 2.98 µM (active)

## Cc1ccc(NC(=O)c2sc3ncnc(O)c3c2C)c(C)c1
[7]
  AC50: 14.1 µM (inconclusive)
[14]
  AC50: 15.8 µM (inconclusive)
[3]
  AC50: 14.1 µM (inconclusive)
[4]
  AC50: inconclusive

## CSc1nc(N2CCN(Cc3ccc4c(c3)OCO4)CC2)c2ccccc2n1
[10]
  AC50: 24.1 µM (active)
[13]
  AC50: > 70 µM (inactive)

## Cc1cc(NC(=O)COC(=O)c2[nH]nc3ccccc23)no1
[8]
  IC50: 62.7 µM (not active)

## CCN(CC)c1ccc(NC(=O)c2cnn(CC)c2)cc1
[15]
  IC50: 6.73 µM (active)
[16]
  AC50: 0.215 µM (active)
[4]
  AC50: inconclusive

## O=C(O)CCC(=O)NCCc1c(/C=C2/C(=O)NC(=S)N(Cc3ccc(F)cc3)C2=O)[nH]c2ccccc12
[1]
  IC50: 1.42 µM (active)
[17]
  IC50: > 100 µM (active)
[15]
  IC50: 55.4 µM (active)

## CCCc1nc2c(c(=O)c3ccccc3n2C)c(=O)n1-c1ccc(F)cc1
[2]
  IC50: 6.43 µM (active)

## Cc1ccc(S(=O)(=O)NCCC(=O)NCc2ccccc2)cc1
[7]
  AC50: 17.8 µM (inconclusive)
[18]
  AC50: 25.1 µM (inconclusive)
[14]
  AC50: 25.1 µM (inconclusive)
[4]
  AC50: inconclusive

## O=C1c2ccccc2C(=O)N1OS(=O)(=O)c1ccc(F)cc1
[17]
  IC50: > 100 µM (active)
[5]
  IC50: 3.91 µM (active)
[19]
  EC50: > 112 µM (not active)
[20]
  EC50: > 56.1 µM (not active)
[6]
  IC50: 5.85 µM (active)

## CCc1cc(=O)oc2cc(C)cc(OC(=O)c3ccco3)c12
[8]
  IC50: > 93.1 µM (not active)

## CCN(CC)N=Nc1[nH]nc2nc(C)cc(C)c12
[21]
  AC50: 17.8 µM (inconclusive)
[18]
  AC50: 12.6 µM (inconclusive)
[9]
  AC50: 2.42 µM (active)

## COc1ccc(C(=O)N/C(=C\c2ccc([N+](=O)[O-])cc2)C(=O)NC(CCSC)C(=O)O)cc1 (configuration not stated)
[5]
  IC50: 5.76 µM (active)
[6]
  IC50: 7.76 µM (active)

## O=[N+]([O-])c1ccc(NC(S)=NCCc2ccccc2)cc1
[5]
  IC50: 15 µM (active)
[6]
  IC50: 24.7 µM (inactive)

## CCCCCCCCC/C(=N\O)c1ccccn1
[22]
  EC50: 1.97 µM (active)
[9]
  AC50: 4.09 µM (active)
[23]
  EC50: > 30 µM (not active)

## CC[C@]1(C(=O)OC)[C@H]2C(=O)N(Cc3ccccc3)C(=O)[C@H]2[C@H]2CN=C(SCc3ccc(C(=O)OC)cc3)N21
[24]
  EC50: > 59.6 µM (inactive)
[25]
  EC50: > 59.6 µM (inactive)

## O=C1C2C3C=CC(C3)C2C(=O)N1CN(Cc1ccccc1)CN1C(=O)C2C3C=CC(C3)C2C1=O (configuration not stated)
[9]
  AC50: 17.4 µM (active)

## O=C(CCCn1c(=O)[nH]c2cc(Cl)ccc2c1=O)NCC1CCCO1 (configuration not stated)
[8]
  IC50: > 31 µM (not active)

## COc1ccc(CCN2C(=O)C=CC2=O)cc1OC
[9]
  AC50: 3.1 µM (active)

## CCCCCOC(=O)C1=C(C)NC(=O)NC1c1ccc([N+](=O)[O-])cc1 (configuration not stated)
[5]
  IC50: 14.9 µM (active)
[6]
  IC50: 9.26 µM (active)

## CC(=O)Nc1nc(C)c(-c2csc(Nc3ccc(O)cc3)n2)s1
[8]
  IC50: > 93.1 µM (not active)
[26]
  AC50: 3.85 µM (active)
[27]
  AC50: 0.988 µM (active)
[16]
  AC50: 0.17 µM (active)
